In PubChem BioAssay (NCI):
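These data come from cells grown in 96-well plates and exposed to compound for 48 hours at five concentrations. GI50 is the concentration that inhibits growth by half. TGI marks complete inhibition of growth.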

Assays:
Assay in all cases: inhibition of tumour cell growth, NCI panel, 48 h
A498 renal = system: A498 renal
CAKI-1 renal = system: CAKI-1 renal
DU-145 prostate = system: DU-145 prostate
HS 578T breast = system: HS 578T breast
M14 melanoma = system: M14 melanoma
MDA-MB-435 = system: MDA-MB-435
NCI-H226 lung = system: NCI-H226 lung
RXF 393 renal = system: RXF 393 renal
SK-MEL-5 melanoma = system: SK-MEL-5 melanoma
SK-OV-3 ovarian = system: SK-OV-3 ovarian
TK-10 renal = system: TK-10 renal
UACC-257 melanoma = system: UACC-257 melanoma

N=C(N)c1ccc(-c2ccc(-c3ccc(F)cc3)s2)s1
GI50 (A498 renal): 1.95 µM | TGI (A498 renal): 4.65 µM | GI50 (CAKI-1 renal): 1.68 µM | TGI (CAKI-1 renal): 3.08 µM | GI50 (DU-145 prostate): 1.72 µM | TGI (DU-145 prostate): 3.19 µM | GI50 (HS 578T breast): 2.19 µM | TGI (HS 578T breast): 4.85 µM | GI50 (M14 melanoma): 1.89 µM | TGI (M14 melanoma): 3.4 µM | GI50 (MDA-MB-435): 1.59 µM | TGI (MDA-MB-435): 2.93 µM | GI50 (NCI-H226 lung): 14.2 µM | TGI (NCI-H226 lung): 54.2 µM | GI50 (RXF 393 renal): 1.75 µM | TGI (RXF 393 renal): 3.34 µM | GI50 (SK-MEL-5 melanoma): 1.81 µM | TGI (SK-MEL-5 melanoma): 3.2 µM | GI50 (SK-OV-3 ovarian): 1.8 µM | TGI (SK-OV-3 ovarian): 3.57 µM | GI50 (TK-10 renal): 1.72 µM | TGI (TK-10 renal): 3.14 µM | GI50 (UACC-257 melanoma): 2.19 µM | TGI (UACC-257 melanoma): 4.15 µM
